The record followed here is ChEMBL document CHEMBL1629424, “Does conjugation of antioxidants improve their antioxidative/anti-inflammatory potential?” (Bioorg Med Chem, 2010).

Structures are written as SMILES. Calls of active or inactive are those of the source. The calls are words filed in the database; no cut-off is given here.

The subject of one assay is Rattus norvegicus. The assay is described as follows: Antiinflammatory activity in Fisher rat assessed as inhibition of carrageenan-induced paw oedema at 0.01 mmol/kg, po measured after 3.5 hrs. It counts as functional.
The test system of assay [1] is Glycine max. The assay is described as follows: Inhibition of soybean lipoxygenase at 0.05 mM.
Assay [2] in a line: Cytotoxicity against RAMEC assessed as cell viability after 24 hrs by MTT assay. The following applies: Rattus norvegicus.
The nature of assay [3]: Antioxidant activity of the compound assessed as reducing activity of DPPH at 0.1 mM after 20 mins. It counts as functional. On the set-up: scale not given: the % may be the effect or the level left.
For assay [4], the system named is Glycine max. The assay can be described thus: Inhibition of soybean lipoxygenase at 0.1 mM.
Assay [5] is described as follows: Antioxidant activity of the compound assessed as reducing activity of DPPH at 0.1 mM after 60 mins. It counts as functional. The arrangement: scale not given: the % may be the effect or the level left. For orientation: The DPPH test is a chemical assay of radical scavenging.
The nature of assay [6]: Antioxidant activity against AAPH-induced lipid peroxidation assessed as inhibition of conjugated diene hydroperoxide production at 0.1 mM by UV spectrophotometry. It counts as functional.
A short description of assay [7]: Inhibition of soybean lipoxygenase. On the set-up: species or system Glycine max.

The inhibition in vivo is the drop in the measured response relative to a control, in per cent. Broadly, the inhibition is how much of the control response was suppressed. The term IC50 denotes the midpoint of a concentration-inhibition curve.

Turning to `COc1cc(C)c(/C=C/C(C)=C/C=C/C(C)=C/C(=O)O)c(C)c1C` [ACITRETIN], the inhibition in vivo at 10 µmol/kg with Rattus norvegicus came to 63%. Moreover, the inhibition result in the assay with Glycine max [1] was “inactive”. The IC50 in assay [2] is 14.6 µM. In addition, the outcome in assay [3] and in assay [5] was inactive. Moreover, the inhibition was 1% with Glycine max [4] and 85% in assay [6].
As for `Cc1c(C)c2c(c(C)c1O)CCC(C)(C(=O)O)O2` (centres undefined), in assay [6], the inhibition came to 63%.
Consider `Cc1oc2c(C)c3oc(=O)cc(C)c3cc2c1/C=C/C(=O)NCCCNCCCCNCCCNC(=O)/C=C/c1c(C)oc2c(C)c3oc(=O)cc(C)c3cc12`, for which the inhibition entry in the assay with Glycine max [1] is “inactive”. Besides, the values for the Activity in assay [3] and in assay [5] were 41% and 54%, respectively. Also, the figures for the inhibition (with Glycine max [4]; in assay [6]) were 57% and 33%, respectively.
Take `NCCc1ccc(O)c(O)c1` [DOPAMINE]: the inhibition in vivo at 10 µmol/kg in the assay on Rattus norvegicus is 13%. This compound also displayed an IC50 in assay [7] of 100 µM. Also, the Activity in assay [3] and in assay [5] was 86% throughout. Moreover, the inhibition in assay [6] came to 43%.
Regarding `NCCCNCCCCNCCCN`, the inhibition entry (in the assay on Glycine max [1]; in the assay on Glycine max [4]; in assay [6]) was “inactive” each time. The Activity in assay [3] and in assay [5] was 4% in each case.
With `CC1=C(/C=C/C(C)=C/C=C/C(C)=C/C(=O)NCCCCCCCCCCCCNC(=O)/C=C(C)/C=C/C=C(C)/C=C/C2=C(C)CCCC2(C)C)C(C)(C)CCC1`, in the assay with Glycine max [1], the inhibition entry was “inactive”. In addition, the concentration for half-maximal inhibition (IC50) in assay [2] is 2.8 µM. In assay [3], the outcome was inactive. For the same compound, the figures for the inhibition (in the assay with Glycine max [4]; in assay [6]) were 23% and 41%, respectively. Moreover, the Activity in assay [5] was found to be 13.4%.
In the case of `COc1ccc(/C=C/C(=O)NCCOCCOC(=O)/C=C/c2c(C)oc3c(C)c4oc(=O)cc(C)c4cc23)cc1OC`, in the assay on Rattus norvegicus, the inhibition in vivo at 10 µmol/kg was 9%. Also, the results for the IC50 in assay [2] and in assay [7] were 12.9 µM and 65 µM, respectively. The outcome in assay [3] was inactive. In addition, the Activity in assay [5] was 15%. The inhibition in assay [6] was determined as 98%.
As to `COc1cc(C)c(/C=C/C(C)=C/C=C/C(C)=C/C(=O)NCCCNCCCCNCCCNC(=O)/C=C(C)/C=C/C=C(C)/C=C/c2c(C)cc(OC)c(C)c2C)c(C)c1C`, the inhibition in vivo at 10 µmol/kg with Rattus norvegicus came to 19%. The inhibition result in the assay on Glycine max [1] is “inactive”. Also, the IC50 in assay [2] was 4.7 µM. The Activity was determined as 26% in assay [3] and 38% in assay [5]. Further, the inhibition is 75% in the assay with Glycine max [4] and 97% in assay [6].
Turning to `COc1ccc(/C=C/C(=O)NCCOCCOC(=O)/C=C/C(=O)n2cc(C(=O)Nc3ccccc3)c3ccccc32)cc1OC`, in assay [7], half-maximal inhibition (IC50) required 33.5 µM. For the same compound, in assay [3], the outcome was inactive. The Activity in assay [5] is 12%. Also, in assay [6], the inhibition entry is “inactive”.
In the case of `COc1ccc(/C=C/C(=O)NCCCNCCCCNCCCNC(=O)/C=C/c2ccc(OC)c(OC)c2)cc1OC`, in the assay on Rattus norvegicus, the inhibition in vivo at 10 µmol/kg turned out to be 42%. Besides, the IC50 in assay [2] amounted to 11.3 µM; in assay [7], 62 µM. In addition, the Activity was found to be 52% in assay [3] and 58% in assay [5]. Moreover, the inhibition in assay [6] is 100%.
Regarding `N[C@@H](Cc1ccc(O)c(O)c1)C(=O)O`, the inhibition result with Glycine max [1] is “inactive”. For the same compound, the Activity in assay [3] and in assay [5] was 76% throughout. Besides, the inhibition in the assay on Glycine max [4] came out at 23%; in assay [6], 65%.
With `COc1cc(C)c(/C=C/C(C)=C/C=C/C(C)=C/C(=O)NCCc2ccc(O)c(O)c2)c(C)c1C`, the inhibition in vivo at 10 µmol/kg with Rattus norvegicus is 13.7%. For the same compound, half-maximal inhibition in assay [7] (IC50) was put at 87 µM. The Activity in assay [3] and in assay [5] was 79% in each case. Moreover, in assay [6], the inhibition was 10%.
For `CC(Cc1ccc(O)c(O)c1)C(C)Cc1ccc(O)c(O)c1` (centres undefined), the Activity in assay [5] worked out at 83%.
`CC1=C(/C=C/C(C)=C/C=C/C(C)=C/C(=O)O)C(C)(C)CCC1` [TRETINOIN]: in the assay on Rattus norvegicus, the inhibition in vivo at 10 µmol/kg was found to be 11%. The inhibition result in the assay with Glycine max [1] and in the assay with Glycine max [4] was “inactive” throughout. Besides, the IC50 in assay [2] came to 18.3 µM. Moreover, the Activity in assay [3] was determined as 11%; in assay [5] it was 23%. Further, the inhibition in assay [6] stood at 75%.
For the compound `O=C1O[C@H]([C@@H](O)CO)C(O)=C1O`, the Activity in assay [3] was determined as 99%; in assay [5], 100%.
Turning to `CCCCNC(=O)/C=C/c1c(C)oc2c(C)c3oc(=O)cc(C)c3cc12`, the inhibition result in the assay on Glycine max [1] is “inactive”. Also, the outcome in assay [3] was inactive. Also, the inhibition with Glycine max [4] came out at 24%; in assay [6], 66%. The Activity in assay [5] is 8.4%.
Regarding `CC1=C(/C=C/C(C)=C/C=C/C(C)=C/C(=O)NCCCNCCCCNCCCNC(=O)/C=C(C)/C=C/C=C(C)/C=C/C2=C(C)CCCC2(C)C)C(C)(C)CCC1`, the inhibition in vivo at 10 µmol/kg in the assay with Rattus norvegicus came to 40%. For the same compound, the inhibition entry in the assay on Glycine max [1] was “inactive”. Besides, the IC50 in assay [2] turned out to be 2.6 µM. Also, in assay [3], the outcome was inactive. The inhibition with Glycine max [4] was found to be 76%; in assay [6], 58%. The Activity in assay [5] was 5%.
With `O=C(O)CCc1ccc(O)c(O)c1`, in the assay with Glycine max [1], the inhibition entry was “inactive”. Also, the Activity in assay [3] and in assay [5] was 100% in each case. The inhibition was found to be 16% with Glycine max [4] and 47% in assay [6].
For the compound `COc1cc(C)c(/C=C/C(C)=C/C=C/C(C)=C/C(=O)NCCCNCCCCNCCCNC(=O)/C=C/c2c(C)oc3c(C)c4oc(=O)cc(C)c4cc23)c(C)c1C`, half-maximal inhibition in assay [7] (IC50) required 41.5 µM. Besides, the outcome in assay [3] and in assay [5] was inactive. For the same compound, the inhibition in assay [6] turned out to be 31%.
For the compound `O=C(O)/C=C/c1ccc(O)c(O)c1` [CAFFEIC ACID], half-maximal inhibition in assay [7] (IC50) required 600 µM. In addition, the results for the Activity in assay [3] and in assay [5] were 5.5% and 6%, respectively. The inhibition in assay [6] was determined as 17.5%.
`N[C@@H](Cc1ccc(O)c(O)c1)C(=O)NCCCNCCCCNCCCNC(=O)[C@@H](N)Cc1ccc(O)c(O)c1`: in the assay on Glycine max [1], the inhibition result is “inactive”. The values for the Activity in assay [3] and in assay [5] were 89% and 96%, respectively. The inhibition is 32% with Glycine max [4] and 71% in assay [6].
On to `Cc1oc2c(C)c3oc(=O)cc(C)c3cc2c1/C=C/C(=O)OC(C)(C)C`, for which, in the assay on Rattus norvegicus, the inhibition in vivo at 10 µmol/kg stood at 46%. Further, the IC50 worked out at 2.9 µM in assay [2] and 9.4 µM in assay [7]. Further, the Activity in assay [3] and in assay [5] was 11% each time. For the same compound, the inhibition in assay [6] worked out at 80%.
In the case of `COc1ccc(/C=C/C(=O)O)cc1OC`, in the assay with Glycine max [1], the inhibition result was “inactive”. Moreover, the Activity stood at 9% in assay [3] and 10% in assay [5]. For the same compound, the inhibition in the assay on Glycine max [4] stood at 23%; in assay [6], 56%.
Turning to `O=C(O)/C=C/C(=O)n1cc(C(=O)Nc2ccccc2)c2ccccc21`, the inhibition in vivo at 10 µmol/kg in the assay with Rattus norvegicus was found to be 11%. Besides, in assay [7], inhibition was half-maximal at 52.4 µM (IC50). Also, the Activity in assay [3] was 1%. Further, the outcome in assay [5] was inactive. Also, the inhibition in assay [6] worked out at 85%.
Regarding `Cc1oc2c(C)c3oc(=O)cc(C)c3cc2c1/C=C/C(=O)O`, the inhibition entry in the assay with Glycine max [1] was “inactive”. Moreover, the Activity in assay [3] and in assay [5] was 11% in each case. Moreover, the inhibition with Glycine max [4] came to 9%; in assay [6], 73%.
Regarding `CC1=C(/C=C/C(C)=C/C=C/C(C)=C/C(=O)NCCCNCCCCNCCCNC(=O)/C=C/c2c(C)oc3c(C)c4oc(=O)cc(C)c4cc23)C(C)(C)CCC1`, in the assay on Glycine max [1], the inhibition entry was “inactive”. For the same compound, the Activity in assay [3] amounted to 11%; in assay [5] it was 38%. Also, the inhibition in the assay with Glycine max [4] amounted to 43%; in assay [6], 45%.
Consider `O=C(CCc1ccc(O)c(O)c1)NCCCNCCCCNCCCNC(=O)CCc1ccc(O)c(O)c1` [KUKOAMINE A], for which the inhibition in vivo at 10 µmol/kg with Rattus norvegicus is 43%. In addition, the half-maximal inhibitory concentration (IC50) in assay [2] stood at 3.5 µM; in assay [7] it was 9.5 µM. The Activity was 96% in assay [3] and 100% in assay [5]. Also, the inhibition in assay [6] turned out to be 72%.
Compound `N[C@@H](Cc1ccc(O)c(O)c1)C(=O)NCCc1ccc(O)c(O)c1` came in with a half-maximal inhibitory concentration (IC50) in assay [7] of 81.5 µM. Besides, the Activity in assay [3] and in assay [5] was 92% throughout. In assay [6], the inhibition entry was “inactive”.
Regarding `COc1cc(C)c(/C=C/C(C)=C/C=C/C(C)=C/C(=O)NCc2ccccc2)c(C)c1C`, the inhibition in vivo at 10 µmol/kg in the assay on Rattus norvegicus amounted to 3.6%. Further, half-maximal inhibition in assay [7] (IC50) required 40.5 µM. Further, the outcome in assay [3] was inactive. For the same compound, in assay [5], the Activity is 2%. In assay [6], the inhibition came to 45%.
Consider `COc1ccc2c(c1)c(CC(=O)O)c(C)n2C(=O)c1ccc(Cl)cc1` [INDOMETHACIN], for which the inhibition in vivo at 10 µmol/kg in the assay on Rattus norvegicus is 47%.
